Results taken from patent US20080286216A1, “Surface Active Calcium Phosphates” (priority 2005, published 2008).

Legend:
[1] = test system: people living in fluoridated areas; conditions: fluoride in drinking water; cited from earlier work
[2] = test system: human dental plaque microcosm biofilms; test: Tooth remineralisation: mineral deposition in dental plaque microcosm biofilms (Wong et al. method); assay type: cell-based; conditions: conclusion of Example 16
Protocol: This example investigated the tooth remineralisation properties of a complex according to the invention.
BMM: basal medium mucin models the nutrients present in saliva and was prepared following Wong et al, “Calcium phosphate deposition in human dental plaque microcosm biofilms induced by a ureolytic pH-rise procedure” Archives of Oral Biology 47 (2002) 779-790
The complex according to the invention was tested for its tooth remineralisation properties using the methodology described in Wong et al, “Calcium phosphate deposition in human dental plaque microcosm biofilms induced by a ureolytic pH-rise procedure” Archives of Oral Biology 47 (2002) 779-790.
Ca & P units: mmol/g protein, F units: μmol/g protein
Mineralisation regime: 14 days mineralisation; 3 doses of testing composition and 10% sucrose daily

## F [fluoride]
[1]
  aesthetically unacceptable changes to the appearance of teeth: at least 12.5%
  incidence of fluorosis: ≤ 48%

## Stearamidopropyl Dimethylamine Glycerophosphate [Example 14]
[2]
  tooth remineralisation properties: has tooth remineralisation properties
